Data: patent US12692547B2, “Methods of treating cancers containing fusion genes” (UNIVERSITY OF PITTSBURGH—OF THE COMMONWEALTH SYSTEM OF …, priority 2016, dated 2026)

Columns and labels:
[1] = tested on: PMF cells (PC3 with inducible MAN2A1-FER-FLAG); assay: Cell death by Annexin V and propidium iodide staining, PMF cells; type: cell-based; conditions: Homo sapiens
Source text: (§1) FIG. 18. […] Factions of cell death were then quantified by Annexin V and propridium iodide staining. […] Factions of cell death were then quantified by Annexin V and propridium iodide staining. […] Factions of cell death were then quantified by Annexin V and propridium iodide staining.
(§2) Since the kinase activity of MAN2A1-FER and EGFR activation are the drivers of MAN2A1-FER oncogenic activity, it is of interest to examine whether inhibition of the kinase activity of MAN2A1-FER or EGFR interrupts the oncogenic activity of MAN2A1-FER, and thus the growth of the tumors.

[2] = tested on: PC3, A-172 and HUH7 xenografted tumors; assay: Metastasis and mortality of treated SCID mice, all tumors pooled; type: in vivo, mouse; conditions: for mortality of xenografted mice: tumors positive for MAN2A1-FER
Source text: (§3) Treatment of Severe Combined Immunodeficient Mice Xenografted With Cancer Cells. For kinase inhibitor treatment experiments, PMF, GMF, HUH7, and HUH7/ko cells (2×10^7 cells) were xenografted into the subcutaneous region of SCID mice. […] Serial sections of formalin-fixed, paraffin-embedded lung, brain, liver, kidney, vertebra, and lymph node specimens were collected, stained with H&E, and examined microscopically.

PC3 cells xenograft = assay: Kinase inhibitor treatment of SCID mice xenografted with PC3 (PMF) cells; type: in vivo, mouse; conditions: for reduction of final tumor size: PC3, MAN2A1-FER present, vs DMSO controls, crizotinib 12.5 mg/kg, canertinib 10 mg/kg, 3 times a week, peritoneal injection
Source text: as §3

HUH7 cells = assay: Cell death by Annexin V and propidium iodide staining, HUH7 cells and MAN2A1-FER knockout counterpart; type: cell-based; conditions: Homo sapiens
Source text: as §1, §2

[3] = tested on: PC3, A-172 or HUH7 with or without MAN2A1-FER; assay: Killing of cancer cell lines with or without MAN2A1-FER (summary over cell lines); type: cell-based; conditions: Homo sapiens, read-out: IC50 values (50% inhibitory concentrations)
Source text: as §1, §2

A-172 cells xenograft = assay: Kinase inhibitor treatment of SCID mice xenografted with A-172 (GMF) cells; type: in vivo, mouse; conditions: for reduction of final tumor size: A-172, MAN2A1-FER present, vs DMSO controls, crizotinib 12.5 mg/kg, canertinib 10 mg/kg, 3 times a week, peritoneal injection
Source text: as §3

HUH7 cells xenograft = assay: Kinase inhibitor treatment of SCID mice xenografted with HUH7 or HUH7/ko cells; type: in vivo, mouse; conditions: for reduction of final tumor size: HUH7, MAN2A1-FER present, vs DMSO controls, crizotinib 12.5 mg/kg, canertinib 10 mg/kg, 3 times a week, peritoneal injection
Source text: as §3

[4] = tested on: GMF cells (A-172 with inducible MAN2A1-FER-FLAG); assay: Cell death by Annexin V and propidium iodide staining, GMF cells; type: cell-based; conditions: Homo sapiens, A 172, GMF cells
Source text: as §1, §2

GST-MAN2A1-FER = molecular target: T1, GST-MAN2A1-FER (Homo sapiens, UniProt P16591); assay: Phosphorylation of HisTAG-EGFR aa1-650 by GST-MAN2A1-FER with excessive peptide; type: biochemical; conditions: excessive amount of peptide; HisTAG-EGFR aa1-650 substrate
T1 construct: while leaving the tyrosine kinase domain in FER largely intact; MAN2A1 N-terminal 703 amino acids (fusion partner, itself N-terminally GST-tagged); made in house; host or cells: Escherichia coli BL21; the other entry of the earlier key: MAN2A1 (Q16706, Alpha-mannosidase 2)
T1 sequence (P16591 with tags, fused parts or gaps): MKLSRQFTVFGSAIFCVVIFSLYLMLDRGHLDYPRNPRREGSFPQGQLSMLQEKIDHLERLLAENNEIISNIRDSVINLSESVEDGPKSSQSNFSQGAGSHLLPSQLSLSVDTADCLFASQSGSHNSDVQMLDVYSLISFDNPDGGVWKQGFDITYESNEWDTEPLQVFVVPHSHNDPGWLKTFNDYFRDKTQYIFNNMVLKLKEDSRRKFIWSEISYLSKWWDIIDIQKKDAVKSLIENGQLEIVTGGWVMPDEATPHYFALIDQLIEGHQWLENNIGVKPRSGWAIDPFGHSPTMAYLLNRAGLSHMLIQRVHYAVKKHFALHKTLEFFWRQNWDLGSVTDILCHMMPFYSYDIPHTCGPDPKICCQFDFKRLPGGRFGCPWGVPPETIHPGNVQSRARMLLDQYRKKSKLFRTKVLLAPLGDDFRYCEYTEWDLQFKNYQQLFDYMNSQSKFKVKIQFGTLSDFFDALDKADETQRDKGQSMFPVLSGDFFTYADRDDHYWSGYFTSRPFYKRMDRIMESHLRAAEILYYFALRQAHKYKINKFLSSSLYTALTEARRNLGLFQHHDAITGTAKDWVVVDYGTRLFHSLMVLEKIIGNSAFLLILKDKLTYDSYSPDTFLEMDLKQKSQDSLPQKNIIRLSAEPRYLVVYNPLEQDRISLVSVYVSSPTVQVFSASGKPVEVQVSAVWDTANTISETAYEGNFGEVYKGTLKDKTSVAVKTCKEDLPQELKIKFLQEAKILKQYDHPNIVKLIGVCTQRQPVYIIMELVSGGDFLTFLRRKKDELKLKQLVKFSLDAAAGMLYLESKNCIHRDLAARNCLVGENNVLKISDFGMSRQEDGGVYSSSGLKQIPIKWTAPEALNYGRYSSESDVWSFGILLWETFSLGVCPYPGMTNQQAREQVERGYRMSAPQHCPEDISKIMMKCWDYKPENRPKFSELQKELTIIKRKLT

[5] = MAN2A1-FER negative cells, control 1/18
[6] = all tumors (PC3, A-172, HUH7), MAN2A1-FER present, controls 11/18
[7] = Huh-7, HUH7 KO (MAN2A1-FER knockout)
[8] = Huh-7, HUH7 WT (MAN2A1-FER positive)
[9] = A-172, MAN2A1-FER not present, same regimen

Compound | IC50 ([1]; Tet+ (MAN2A1-FER-FLAG induced)) [nM] | IC50 ([1]; Tet− (no MAN2A1-FER-FLAG)) [nM] | metastasis (mice with metastasis / mice) [2, 5] | metastasis (mice with metastasis / mice) [2, 6] | mortality of xenografted mice [2] | reduction of tumor size (PC3 cells xenograft; PC3, MAN2A1-FER not present, same regimen) [%] | reduction of final tumor size (PC3 cells xenograft) [%] | IC50 (HUH7 cells; [7]) [nM] | IC50 (HUH7 cells; [8]) [nM] | IC50 [3] [nM] | reduction of tumor size (A-172 cells xenograft; [9]) [%] | reduction of final tumor size (A-172 cells xenograft) [%] | reduction of tumor size (HUH7 cells xenograft; HUH7, MAN2A1-FER not present (knockout), same regimen) [%] | reduction of final tumor size (HUH7 cells xenograft) [%] | IC50 ([4]; Tet+ (MAN2A1-FER-FLAG induced)) [nM] | IC50 ([4]; Tet− (no MAN2A1-FER-FLAG)) [nM] | blocking of phosphorylation of EGFR N-terminus by GST-MAN2A1-FER (GST-MAN2A1-FER) | increase of tumor size (A-172 cells xenograft; [9]) [%]
C=CC(=O)Nc1cc2c(Nc3ccc(F)c(Cl)c3)ncnc2cc1OCCCN1CCOCC1 [canertinib] | 10.9 | 25.1 | 2/18 | 0/18 | completely eliminated the mortality | 32.0 | 85.0 | 30.3 | 14.7 | < 15 | 19.2 | 73.2 | 40.2 | 81.7 | 10.7 | 26.5 | – | –
FLKTIQEVAGYVLIALNTVER [peptide 3] | – | – | – | – | – | – | – | – | – | – | – | – | – | – | – | – | partially blocked | –
C[C@@H](Oc1cc(-c2cnn(C3CCNCC3)c2)cnc1N)c1c(Cl)ccc(F)c1Cl [crizotinib] | 20.8 | 43.4 | 2/18 | 0/18 | completely eliminated the mortality | – | 78.6 | 52.9 | 28.9 | – | – | 67.6 | – | 80.7 | 33.1 | 64.5 | – | 4
